Here are results for two compounds from paper PMC4014704, “β-Boomerang Antimicrobial and Antiendotoxic Peptides: Lipidation and Disulfide Bond Effects on Activity and Structure” (Pharmaceuticals, 2014).

In data set [1] the test system is LPS micelles. In words: Isothermal titration calorimetry. In kind it is binding, E. coli 0111:B4. As to conditions: ITC; for Ka: 1 mM peptide into 10 μM LPS, 10 mM phosphate buffer pH 7.0, 25 °C, single site binding model; for Kd: LPS micelles, pH 7.0, 25 °C, Kd = 1/Ka. The method, then: Isothermal titration calorimetry: Binding of designed peptides with LPS micelles was determined using isothermal titration calorimetry in VP-ITC micro calorimeter (Microcal Inc, Northampton, MA, USA). Peptides and LPS samples were dissolved in 10 mM phosphate buffer, pH 7.0 and filtered. LPS at a concentration of 10 μM was loaded into the sample cell and the reference cell was filled with the same buffer. The syringe was filled with 1mM peptide solution. Typically 30 injections of 3.5 μL of the peptides were made into the sample cell at 25 °C. Sample cell was stirred continuously at 300 rpm. Raw data were obtained and analyzed using single site binding model in Microcal Origin 5.0 software. Association constant (Ka) and enthalpy change (ΔH) were directly determined from ITC profiles. Dissociation constant was calculated from Kd = 1/Ka. ΔG and TΔS were estimated from the fundamental equations of thermodynamics, ΔG = −RTlnKa and TΔS = (ΔH − ΔG), respectively.
For orientation: ITC needs no label: the signal is the heat of the interaction.

Data set [2] can be described thus: Reverse phase HPLC retention time (hydrophobicity). In kind it is physicochemical. More on the design: unit not given beside the values. The following applies: C18 column (300 Å pore size, 5 μm particle size), linear gradient acetonitrile/water, higher Rt taken as more hydrophobic. An excerpt:
Materials: LPS of E. coli 0111:B4, FITC-LPS of E. coli 055:B5, acrylamide, NPN (1-N-phenylnaphthylamine) were purchased from Sigma (Saint Louis, MO, USA). All bacterial strains were obtained from the American Type Culture Collection (Manassas, VA, USA). Designed peptides were synthesized commercially by GL Biochem (Shanghai, China) and further purified by a reverse phase HPLC (Waters), using a C18 column (300 Å pore size, 5 μm particle size). The dimeric variants of β-boomerang lipopeptides were treated with 20% DMSO for 18 hours and the oxidized peptides were further purified by HPLC. A linear gradient of acetonitrile/water mixture was used for the purification and fractions eluting with higher purity were collected and freeze-dried.
In addition, incorporation of disulfide bridges in AMPs may stabilize conformations and enhance cationicity and hydrophobicity required for enhanced activity. […] Residue Ile10 was chosen for Cys replacement since this residue is located at the exposed face of the β-strand of the YI12WF structure (Figure 1).

Data set [3] has as its system LPS micelles. In words: Dynamic light scattering of LPS micelles. Details: species or system E. coli 0111:B4. As to conditions: DLS, 0.5 μM LPS, LPS:peptide 1:4; LPS alone 814 nm. As for the experimental part: Dynamic light scattering measurements: LPS forms micelles of large sizes, which with the addition of increasing concentration of peptides, dissociates to smaller sizes. DLS measurements were made for 0.5 μM LPS and then with LPS: Peptide ratios of 1:2 and 1:4. The scattering was measured with Dynamic Light Scattering software provided with the instrument (Brookhaven Instruments Corp., Holtsville, NY, USA) and the scattering data was analyzed with CONTIN method.

The subject of another data set is E. coli cells. In words: Zeta potential measurements. As to conditions: 4 μM peptide; cells without peptide about −20.0 mV; OD600 0.2. In kind it is cell-based. As for the experimental part: Zeta potential measurements: The zeta potential measurements were carried out on a Zetasizer Nano ZS (Malvern Instruments, Worcestershire, UK) equipped with a 633 nm He lasers. Mid-log phase grown bacterial cells were diluted to an OD600 of 0.2 and a basal measurement in the absence of peptides was acquired in disposable zeta cells with gold electrodes. Increasing concentrations of the designed peptides were then added to the cells and the measurements were made. A total of five measurements of 100 runs each were carried out for all dilutions.

For a further data set, the system named is red blood cells. The following applies: mouse RBC ~4% (v/v) in PBS pH 7.0, 1 h, OD540, 1% Triton-X = positive control. As for the experimental part:
Hemolytic assay: Blood was collected from healthy mice in a tube containing EDTA. Cells with EDTA were centrifuged at 800 g for 10 min, to remove the buffy plasma coat layer, and washed three times in PBS (35 mM phosphate buffer, 150 mM NaCl, pH 7.0). 50 μL of RBC solution was added to equal volume of two-fold dilution of the peptides in 96-well micro titer plates and incubated for one hour. The final erythrocyte concentration estimated to be ~4% (v/v). After one hour, the mixture was centrifuged and the release of hemoglobin in the supernatant was determined spectrophotometrically at OD540. Buffer and 1% Triton-X in the place of peptides used as negative control and positive control, respectively. The percentage of hemolysis was calculated using the following method: Percentage of hemolysis = (OD peptide − OD buffer)/(OD Triton-X-OD buffer) × 100

The test system of data set [4] is K. pneumoniae (ATCC 13883). In words: Antibacterial assay (MIC). As to conditions: 10 mM phosphate buffer pH 6.8, 3 h 37 °C, streaked on Mueller-Hinton agar. In kind it is cell-based. The method, then:
(§1) Antibacterial assay: The minimum inhibitory concentration (MIC) of the designed peptides was determined against four Gram-negative strains (E. coli, P. aeruginosa ATCC 27853, K. pneumoniae ATCC 13883, S. enterica ATCC 14028) and four Gram-positive strains (B. subtilis, S. aureus ATCC 25923, S. pyogenes ATCC 19615 and E. faecalis ATCC 29212). In brief, mid logarithmic phase of overnight grown bacterial cultures were obtained in LB broth and adjusted to OD600 0.2 in 10 mM phosphate buffer, pH 6.8. About 50 μL of these cells were added to equal volume of designed peptides at two-fold dilutions in 96-well sterile polypropylene plates followed by incubation for 3hrs at 37 °C. Aliquots of the above titrated wells were streaked onto Mueller-Hinton agar plates and the concentration at which no visible bacterial growth was observed considered as the MIC value of the peptide.

The next data set deals with S.enterica (ATCC 14028). In words: Antibacterial assay (MIC). In kind it is cell-based. As to conditions: 10 mM phosphate buffer pH 6.8, 3 h 37 °C, streaked on Mueller-Hinton agar. The method, then:
as §1

The subject of the next data set is E.coli (Lab strain). Kind of data set: Antibacterial assay (MIC). The following applies: 10 mM phosphate buffer pH 6.8, 3 h 37 °C, streaked on Mueller-Hinton agar, no visible growth. In kind it is cell-based. The method, then:
as §1

Data set [5] relates to P.aeruginosa (ATCC 27853). In words: Antibacterial assay (MIC). In kind it is cell-based. The following applies: 10 mM phosphate buffer pH 6.8, 3 h 37 °C, streaked on Mueller-Hinton agar. The method, then:
as §1

The test system of a further data set is E.faecalis (ATCC 29212). In words: Antibacterial assay (MIC). In kind it is cell-based. The following applies: 10 mM phosphate buffer pH 6.8, 3 h 37 °C, streaked on Mueller-Hinton agar. The method, then:
as §1

The next data set deals with B.subtilis (Lab strain). In words: Antibacterial assay (MIC). In kind it is cell-based. As to conditions: 10 mM phosphate buffer pH 6.8, 3 h 37 °C, streaked on Mueller-Hinton agar. The method, then:
as §1

A further data set deals with S.pyogenes (ATCC 19615). In words: Antibacterial assay (MIC). In kind it is cell-based. The following applies: 10 mM phosphate buffer pH 6.8, 3 h 37 °C, streaked on Mueller-Hinton agar. The method, then:
as §1

The subject of another data set is S.aureus (ATCC 25923). In words: Antibacterial assay (MIC). In kind it is cell-based. As to conditions: 10 mM phosphate buffer pH 6.8, 3 h 37 °C, streaked on Mueller-Hinton agar. The method, then:
as §1

The test system of the next data set is LPS (endotoxin). In words: LPS neutralization assay (chromogenic LAL kit). In kind it is biochemical. As to conditions: for LPS neutralization: 1.0 μM peptide. As for the experimental part:
LPS neutralization assay: LAL chromogenic kit (QCL 100 Cambrex, Walkersville, MD, USA) was used to determine endotoxin neutralization of the designed peptides following protocol of the vendor. LPS in Gram negative bacteria activates a proenzyme in limulus amoebocyte lysate (LAL). This activated enzyme in turn catalytically release a colored product pNA from the colorless substrate Ac-Ile-Glu-Ala-Arg-pNA which is detected spectrophotometrically at OD410. All peptides were dissolved in the pyrogen-free water supplied with the kit and pH was adjusted to 7.0 with 1N HCl or 1N NaOH (which is prepared in pyrogen-free water). The increasing concentrations of the peptides were incubated with three different concentrations of endotoxins, i.e., at 0.4, 0.8 and 1.0 endotoxin units (EU) in a total volume of 50 μL for 30 minutes at 37 °C. About 50 μL of LAL reagent was added to peptide-LPS complex and further incubated for 10 minutes followed by addition of 100 μL substrate. After incubation of six minutes for the reaction, the release of colored product was recorded at OD410. Water in the place of peptides served as negative control (blank) that is considered as 0% inhibition and percentage of LPS neutralization was calculated by: % of LPS neutralization = [(OD blank − OD peptide)/OD blank] × 100

Values after ≈ are worked out from the molar mass of the structure shown. Peptide text beside a SMILES is read from it.

As a reminder, the Kd is the equilibrium constant for the complex coming apart. Take `CCCC(=O)N[C@@H](Cc1ccc(O)cc1)C(=O)N[C@H](C(=O)N[C@@H](CC(C)C)C(=O)N[C@@H](Cc1c[nH]c2ccccc12)C(=O)N[C@@H](CCCCN)C(=O)N[C@@H](CCCNC(=N)N)C(=O)N[C@@H](CCCCN)C(=O)N[C@@H](CCCNC(=N)N)C(=O)N[C@@H](CCCCN)C(=O)N[C@@H](Cc1ccccc1)C(=O)N[C@@H](CSSC[C@H](NC(=O)[C@H](Cc1ccccc1)NC(=O)[C@H](CCCCN)NC(=O)[C@H](CCCNC(=N)N)NC(=O)[C@H](CCCCN)NC(=O)[C@H](CCCNC(=N)N)NC(=O)[C@H](CCCCN)NC(=O)[C@H](Cc1c[nH]c2ccccc12)NC(=O)[C@H](CC(C)C)NC(=O)[C@@H](NC(=O)[C@H](Cc1ccc(O)cc1)NC(=O)CCC)C(C)C)C(=O)N[C@@H](Cc1ccccc1)C(=O)N[C@H](C(N)=O)[C@@H](C)CC)C(=O)N[C@@H](Cc1ccccc1)C(=O)N[C@H](C(N)=O)[C@@H](C)CC)C(C)C` [C4YI13C] (HELM PEPTIDE1{[CCCC(=O)[*:2]].Y.V.L.W.K.R.K.R.K.F.C.F.I.[am]}|PEPTIDE2{[CCCC(=O)[*:2]].Y.V.L.W.K.R.K.R.K.F.C.F.I.[am]}$PEPTIDE1,PEPTIDE2,12:R3-12:R3$$$V2.0): in the data set with LPS micelles [1], the Ka turned out to be 2.2 µM⁻¹. This compound showed a Kd at LPS micelles [1] of 450 nM. In [2], the “Retention time (Rt)” value is reported as 31.62. Further, the “Diameter of LPS aggregates” value in the data set with LPS micelles [3] is 331 nm. In the data set with E. coli cells, the “Zeta potential of E. coli cells after peptide addition” value is “about +19.1 mV”. Further, in the data set with red blood cells, the “% of hemolysis at 50 μM peptide concentration” value was determined as 14.1%. Besides, the “Minimum inhibitory concentration (MIC)” value in data set [4] worked out at 8 µM (≈ 29.7 µg/mL); in the data set with S.enterica (ATCC 14028) it was 50 µM (≈ 186 µg/mL); with E.coli (Lab strain), 10 µM (≈ 37.1 µg/mL); in [5], 15 µM (≈ 55.7 µg/mL); with E.faecalis (ATCC 29212), 50 µM (≈ 186 µg/mL); in the data set on B.subtilis (Lab strain), 15 µM (≈ 55.7 µg/mL). For the same compound, the “Minimum inhibitory concentration (MIC)” value in the data set with S.pyogenes (ATCC 19615) and in the data set on S.aureus (ATCC 25923) was 50 µM (≈ 186 µg/mL) throughout. In addition, the LPS neutralization is ~ 40% with LPS (endotoxin) (0.4 EU endotoxin, 30 min 37 °C, OD410) and 50% with LPS (endotoxin) (1.0 EU endotoxin).

Consider `CC[C@H](C)[C@H](NC(=O)[C@H](Cc1ccccc1)NC(=O)[C@H](CSSC[C@H](NC(=O)[C@H](Cc1ccccc1)NC(=O)[C@H](CCCCN)NC(=O)[C@H](CCCNC(=N)N)NC(=O)[C@H](CCCCN)NC(=O)[C@H](CCCNC(=N)N)NC(=O)[C@H](CCCCN)NC(=O)[C@H](Cc1c[nH]c2ccccc12)NC(=O)[C@H](CC(C)C)NC(=O)[C@@H](NC(=O)[C@@H](N)Cc1ccc(O)cc1)C(C)C)C(=O)N[C@@H](Cc1ccccc1)C(=O)N[C@H](C(N)=O)[C@@H](C)CC)NC(=O)[C@H](Cc1ccccc1)NC(=O)[C@H](CCCCN)NC(=O)[C@H](CCCNC(=N)N)NC(=O)[C@H](CCCCN)NC(=O)[C@H](CCCNC(=N)N)NC(=O)[C@H](CCCCN)NC(=O)[C@H](Cc1c[nH]c2ccccc12)NC(=O)[C@H](CC(C)C)NC(=O)[C@@H](NC(=O)[C@@H](N)Cc1ccc(O)cc1)C(C)C)C(N)=O` [YI13C] (HELM PEPTIDE1{Y.V.L.W.K.R.K.R.K.F.C.F.I.[am]}|PEPTIDE2{Y.V.L.W.K.R.K.R.K.F.C.F.I.[am]}$PEPTIDE1,PEPTIDE2,11:R3-11:R3$$$V2.0), for which the Ka in the data set on LPS micelles [1] was 4.2 µM⁻¹. The affinity at LPS micelles [1], expressed as Kd, was 230 nM. The “Retention time (Rt)” value in [2] is given as 27.48. Besides, in the data set with LPS micelles [3], the “Diameter of LPS aggregates” value is 291 nm. In addition, the “% of hemolysis at 50 μM peptide concentration” value with red blood cells was 21.5%. Besides, the “Minimum inhibitory concentration (MIC)” value was 25 µM (≈ 89.3 µg/mL) in data set [4]; 50 µM (≈ 179 µg/mL) in the data set with S.enterica (ATCC 14028); 12.5 µM (≈ 44.6 µg/mL) in the data set on E.coli (Lab strain); 20 µM (≈ 71.4 µg/mL) in data set [5]; 50 µM (≈ 179 µg/mL) with E.faecalis (ATCC 29212); 20 µM (≈ 71.4 µg/mL) in the data set on B.subtilis (Lab strain). The “Minimum inhibitory concentration (MIC)” value with S.pyogenes (ATCC 19615) worked out at 50 µM (≈ 179 µg/mL); in the data set on S.aureus (ATCC 25923), 20 µM (≈ 71.4 µg/mL). In addition, the “LPS neutralization (in words)” value with LPS (endotoxin) (10 μM peptide concentration) was “neutralization activity equal to acylated analogs”.
